# US6537948B1, “Uracil compounds and use thereof” (Sumitomo Chemical Company, Limited, priority 2000, dated 2003)
# What was measured:
# [1] = tested on: barnyardgrass (Echinochloa crus-galli); assay: Test Example 5: foliar treatment of field; format: in vivo; settings: foliar spray, dosage 16 g/ha, 6 days after application
# Experimental: (§1) A plastic pot having longer side of 27 cm, shorter side of 20 cm and depth of 7.5 cm was filled with soil and then seeded with ivyleaf morningglory (Ipomoea hederacea) and common cocklebur (Xanthium pensylvanicum). Three days after, barnyardgrass (Echinochloa crus-galli) was seeded therein and grown for 7 days in a greenhouse. Then, therein, transplanted were common lambsquarters (Chenopodium album), redroot pigweed and giant foxtail (Setaria faberi) which had been seeded and grown for 14 days in a green house in advance. The test plants were further grown in the greenhouse for 8 days. After then, present compound 7-7 was formulated into an emulsifiable concentrate according to Formulation Example 2 and then diluted to the prescribed amount with water containing a spreading agent and the dilution was uniformly sprayed over the foliage of the test plants with a sprayer at a rate of 1000 liters per hectare. After the application, the test plants were grown in the greenhouse for 6 days, and the herbicidal activity was examined.
# [2] = tested on: common cocklebur (Xanthium pensylvanicum); assay: Test Example 5: foliar treatment of field; format: in vivo; settings: foliar spray, dosage 16 g/ha, 6 days after application
# Experimental: as §1
# [3] = tested on: common lambsquarters (Chenopodium album); assay: Test Example 5: foliar treatment of field; format: in vivo; settings: foliar spray, dosage 16 g/ha, 6 days after application
# Experimental: as §1
# [4] = tested on: giant foxtail (Setaria faberi); assay: Test Example 5: foliar treatment of field; format: in vivo; settings: foliar spray, dosage 16 g/ha, 6 days after application
# Experimental: as §1
# [5] = tested on: ivyleaf morningglory (Ipomoea hederacea); assay: Test Example 5: foliar treatment of field; format: in vivo; settings: foliar spray, dosage 16 g/ha, 6 days after application
# Experimental: as §1
# redroot pigweed = assay: Test Example 5: foliar treatment of field; format: in vivo, Amaranthus retroflexus; settings: foliar spray, dosage 16 g/ha, 6 days after application
# Experimental: as §1
smiles,measurement,setting,value
"COC(=O)COc1ncccc1Oc1cc(-n2c(=O)cc(C(F)(F)F)n(C)c2=O)c(F)cc1Cl [Compound 7-7, 3-{2-chloro-4-fluoro-5-[3-methyl-2,6-dioxo-4-(trifluoromethyl)-1,2,3,6-tetrahydropyrimidin-1-yl]phenoxy}-2-(methoxycarbonyl)methoxypyridine]",growth of barnyardgrass (herbicidal activity),[1],completely controlled
same,growth of common cocklebur (herbicidal activity),[2],completely controlled
same,growth of common lambsquarters (herbicidal activity),[3],completely controlled
same,growth of giant foxtail (herbicidal activity),[4],completely controlled
same,growth of ivyleaf morningglory (herbicidal activity),[5],completely controlled
same,growth of redroot pigweed (herbicidal activity),redroot pigweed,completely controlled
same,melting point,,52.2 °C
